This is an account of results in ChEMBL document CHEMBL1154241, “A QSAR study on relationship between structure of sulfonamides and their carbonic anhydrase inhibitory activity using the eigenvalue (EVA) method” (Eur J Med Chem, 2009).

The target in this assay is Carbonic anhydrase 2 (Homo sapiens) (UniProt P00918).

Description: Inhibition of carbonic anhydrase 2 assessed as inhibition of carbon dioxide hydration

In the case of `NS(=O)(=O)c1ccc(C/N=C/c2ccccc2[N+](=O)[O-])cc1`, the logKi was 2.48.
`CS(=O)(=O)c1ccc(CC/N=C/c2ccccc2Cl)cc1` showed a logKi of 2.32.
`NS(=O)(=O)c1ccc(/N=C/C=C/c2ccccc2)cc1` showed a logKi of 1.7.
Take `COc1ccc(/C=N/Cc2ccc(S(N)(=O)=O)cc2)cc1`: the logKi is 2.08.
As to `CS(=O)(=O)/N=C/C1=C(O)CCC=C1`, the logKi amounted to 1.6.
Consider `CC(=O)Nc1ccc(/C=N/c2ccc(S(N)(=O)=O)cc2)cc1`, for which the logKi came out at 2.04.
Compound `NS(=O)(=O)c1ccc(C/N=C/c2ccccc2O)cc1` yielded a logKi of 2.11.
In turn, `NS(=O)(=O)c1ccc(/N=C/c2ccc([N+](=O)[O-])cc2)cc1` came in with a logKi of 1.7.
Then `NS(=O)(=O)c1ccc(C/N=C/c2ccc([N+](=O)[O-])cc2)cc1` (stereo in doubt; 45), with 1.3.
Take `CC(=O)Nc1ccc(/C=N/CCc2ccc(S(C)(=O)=O)cc2)cc1`: the logKi was 1.6.
As to `COc1cc(/C=N/c2ccc(S(N)(=O)=O)cc2)ccc1C(C)=O`, the logKi amounted to 2.
Regarding `NS(=O)(=O)c1ccc(/N=C/c2ccc(Cl)cc2)cc1`, the logKi was found to be 2.45.
Regarding `CC(=O)Nc1ccc(/C=N/Cc2ccc(S(N)(=O)=O)cc2)cc1`, the logKi is 2.04.
On to `NS(=O)(=O)c1ccc(C/N=C/c2ccccc2Cl)cc1`, for which the logKi came out at 1.95.
Then `NS(=O)(=O)c1ccc(/N=C/c2cccc([N+](=O)[O-])c2)cc1`, with 2.25; and `NS(=O)(=O)c1ccc(C/N=C/c2ccc([N+](=O)[O-])cc2)cc1` (stereo in doubt; 60), with 2.15.
With `NS(=O)(=O)c1ccc(/N=C/C2=C(Cl)CCC=C2)cc1`, the logKi turned out to be 2.46.
As for `COc1ccccc1/C=N/c1ccc(S(N)(=O)=O)cc1`, the logKi is 2.23.
